For test [1], the system named is E. coli KL-16 (GSC strain 4245). In words: In vitro antibacterial activity (MIC assay), broth microdilution. Type of test: cell-based. The settings on record: Escherichia coli. The method in brief: (§1)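 Broth microdilution per NCCLS M7-A5: 11-point 2-fold compound dilutions from DMSO stocks, inoculum about 5×10^5 CFU/mL, incubation 35° C for 16–24 h. MIC scored visually against no-compound growth controls, in μg/mL.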
On the technique in general: Broth dilution looks for growth in wells or tubes with falling amounts of substance.

The subject of test [2] is S. aureus ATCC13709. Described as above. The format is cell-based. As to conditions: Staphylococcus aureus, ATCC13709; read-out: S. aureus ATCC13709 MIC. The method in brief: as §1
Test [3] deals with S. pneumoniae ATCC49619. The description is as above. Type of test: cell-based. As to conditions: Streptococcus pneumoniae, ATCC49619; read-out: S. pneumoniae ATCC49619 MIC. A digest of the protocol:
as §1

Test [4] deals with T1, E. coli DNA gyrase (Escherichia coli, UniProt P0AES4+P0AES6).
T1 construct: purchased John Innes Enterprises Ltd. (John Innes Centre, UK)
In words: DNA gyrase inhibition assay (supercoiling). Type of test: biochemical. The settings on record: E. coli DNA gyrase supercoiling, visual inspection of gels; read-out: DNA Gyrase IC50 (converted). The method in brief:
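Relaxed pBR322 (250 ng) was supercoiled by 0.2 unit gyrase in Tris-HCl pH 7.5, KCl, MgCl2, DTT, spermidine, 1 mM ATP, glycerol, albumin, 0.5% DMSO final, 30 min at 37° C. Products were resolved on 1.0% agarose gels with ethidium bromide staining.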

Test [5] addresses T2, E. coli topoisomerase IV (Escherichia coli, UniProt P0AFI2+P20083).
T2 construct: purchased John Innes Enterprises Ltd. (John Innes Centre, UK)
The test is described as follows: Topoisomerase IV inhibition assay (relaxation). The format is biochemical. As to conditions: E. coli topoisomerase IV relaxation, visual inspection of gels; read-out: Topoisomerase IV IC50 (converted). The method, then: Inhibition of the relaxation activity of E. coli topoisomerase IV was determined using enzyme, buffers and substrates received from John Innes Enterprises Ltd. (John Innes Centre, UK). The reactions were performed according to the manufacturer's directions, with the following modifications.
DNA relaxation reactions were carried out in a total reaction volume of 20 μL, containing 300 ng of supercoiled pBR322, 40 mM HEPES-KOH (pH 7.6), 100 mM potassium glutamate, 10 mM Mg(OAc)2, 10 mM DTT, 4 μg/mL tRNA, 2 mM ATP, and 50 μg/mL BSA. Compounds, diluted in 10% DMSO, were added to the reaction mixture to reach a final concentration of 0.5% DMSO. Enzyme was diluted to 0.45 unit/μL in a solution of 40 mM HEPES-KOH (pH 7.6), 150 mM potassium glutamate, 1 mM DTT, 1 mM EDTA, and 40% glycerol. Diluted enzyme (0.9 unit) was added to each reaction.
The reactions were incubated at 37° C. for 45 min. The reactions were then cooled to 0° C. followed by addition of 3 μL of 40% glycerol, 100 mM Tris-HCl (pH 7.5), 50 mM EDTA, 0.5% SDS and 0.1% bromophenol blue. Samples were separated on 1.0% agarose gels. Gels were stained with Ethidium bromide and photographed with a Stratagene Eagle Eye II.

In brackets after ≈: the same amount, converted by molar mass. Some results are limits rather than exact numbers.

One may read the MIC as the lowest concentration that inhibits growth of the organism. As a reminder, the IC50 is the concentration at which inhibition is half-maximal.

T2 sequence (P0AFI2 whole entry): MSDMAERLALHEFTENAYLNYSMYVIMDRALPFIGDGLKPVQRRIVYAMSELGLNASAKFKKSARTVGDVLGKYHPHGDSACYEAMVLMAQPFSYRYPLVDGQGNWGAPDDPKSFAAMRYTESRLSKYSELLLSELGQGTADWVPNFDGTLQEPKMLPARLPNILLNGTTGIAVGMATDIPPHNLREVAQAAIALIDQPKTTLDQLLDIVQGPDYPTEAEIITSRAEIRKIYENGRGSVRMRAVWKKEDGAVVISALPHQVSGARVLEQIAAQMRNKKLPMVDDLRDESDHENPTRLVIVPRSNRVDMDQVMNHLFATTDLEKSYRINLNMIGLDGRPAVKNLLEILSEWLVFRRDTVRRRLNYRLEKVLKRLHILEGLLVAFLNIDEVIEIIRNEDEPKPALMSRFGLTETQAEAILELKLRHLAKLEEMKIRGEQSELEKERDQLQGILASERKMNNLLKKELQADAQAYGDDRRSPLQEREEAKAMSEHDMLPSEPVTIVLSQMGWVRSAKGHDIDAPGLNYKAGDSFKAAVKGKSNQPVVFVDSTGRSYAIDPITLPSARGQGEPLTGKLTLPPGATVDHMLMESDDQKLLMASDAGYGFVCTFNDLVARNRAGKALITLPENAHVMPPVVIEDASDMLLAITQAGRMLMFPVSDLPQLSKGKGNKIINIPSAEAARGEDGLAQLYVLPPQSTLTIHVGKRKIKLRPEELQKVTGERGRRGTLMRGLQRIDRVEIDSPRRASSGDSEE
T2 sequence (P20083 whole entry): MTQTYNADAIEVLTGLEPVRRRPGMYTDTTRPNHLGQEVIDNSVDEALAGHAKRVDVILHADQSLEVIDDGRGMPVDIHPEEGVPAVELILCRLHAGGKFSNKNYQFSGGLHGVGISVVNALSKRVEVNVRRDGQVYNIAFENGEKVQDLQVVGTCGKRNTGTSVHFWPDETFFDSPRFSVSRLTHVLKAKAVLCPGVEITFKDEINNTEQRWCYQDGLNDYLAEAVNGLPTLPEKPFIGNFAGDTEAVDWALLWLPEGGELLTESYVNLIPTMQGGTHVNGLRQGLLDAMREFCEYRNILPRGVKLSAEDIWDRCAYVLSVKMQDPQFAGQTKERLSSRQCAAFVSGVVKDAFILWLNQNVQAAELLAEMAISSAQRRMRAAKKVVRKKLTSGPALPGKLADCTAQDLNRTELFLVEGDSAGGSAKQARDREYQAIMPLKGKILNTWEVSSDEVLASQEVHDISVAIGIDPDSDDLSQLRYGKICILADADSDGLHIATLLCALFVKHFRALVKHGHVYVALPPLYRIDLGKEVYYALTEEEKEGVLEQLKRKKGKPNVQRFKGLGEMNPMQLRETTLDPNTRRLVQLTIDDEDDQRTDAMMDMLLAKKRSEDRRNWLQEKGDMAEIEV
T1 sequence (P0AES4 whole entry, one chain of several): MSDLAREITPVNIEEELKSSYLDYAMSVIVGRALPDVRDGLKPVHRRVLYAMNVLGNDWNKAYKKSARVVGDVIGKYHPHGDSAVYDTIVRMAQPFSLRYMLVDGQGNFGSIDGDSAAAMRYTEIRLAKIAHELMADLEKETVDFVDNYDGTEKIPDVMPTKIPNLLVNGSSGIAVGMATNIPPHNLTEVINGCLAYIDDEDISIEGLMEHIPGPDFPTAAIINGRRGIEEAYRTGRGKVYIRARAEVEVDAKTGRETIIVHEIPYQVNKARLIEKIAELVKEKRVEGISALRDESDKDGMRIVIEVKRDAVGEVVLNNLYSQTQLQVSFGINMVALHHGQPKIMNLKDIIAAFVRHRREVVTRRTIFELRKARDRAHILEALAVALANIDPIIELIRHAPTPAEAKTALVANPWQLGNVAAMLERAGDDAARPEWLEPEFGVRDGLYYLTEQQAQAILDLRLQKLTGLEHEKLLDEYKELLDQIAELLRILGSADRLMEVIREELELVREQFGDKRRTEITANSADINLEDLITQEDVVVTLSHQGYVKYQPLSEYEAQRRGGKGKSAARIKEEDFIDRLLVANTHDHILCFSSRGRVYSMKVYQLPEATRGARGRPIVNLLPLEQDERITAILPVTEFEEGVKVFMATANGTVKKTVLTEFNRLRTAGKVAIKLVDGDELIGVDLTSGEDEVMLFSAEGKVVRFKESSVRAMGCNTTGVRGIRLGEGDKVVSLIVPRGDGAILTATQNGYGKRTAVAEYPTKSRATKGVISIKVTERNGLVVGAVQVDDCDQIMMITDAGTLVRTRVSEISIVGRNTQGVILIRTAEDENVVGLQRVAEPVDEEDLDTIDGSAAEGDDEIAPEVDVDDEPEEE

On to `COc1ccc2nccc(-n3cc4c(n3)CCC(NC(=O)c3ccc5c(c3)OCCO5)C4)c2n1` (stereo not shown) [Example 1, 2,3-Dihydro-benzo[1,4]dioxine-6-carboxylic acid [2-(6-methoxy-[1,5]naphthyridin-4-yl)-4,5,6,7-tetrahydro-2H-indazol-5-yl]-amide], for which the MIC is over 128 µg/mL in test [1], 0.5 µg/mL (≈ 1.09 µM) in test [2] and 8 µg/mL (≈ 17.5 µM) in test [3]. For the same molecule, the IC50 in test [4] was over 69900 nM; in test [5] it was over 2190 nM.
On to `COc1ccc2nccc(-n3cc4c(n3)CCC(NC(=O)c3cc5ccccc5s3)C4)c2c1` (stereo not shown) [Example 23, Benzo[b]thiophene-2-carboxylic acid [2-(6-methoxy-quinolin-4-yl)-4,5,6,7-tetrahydro-2H-indazol-5-yl]-amide], for which the minimum inhibitory concentration (MIC) in test [1] is over 128 µg/mL; in test [2] it was under 0.125 µg/mL; in test [3], 2 µg/mL (≈ 4.4 µM). In addition, in test [5], the IC50 is over 2200 nM.
In the same order, the values of `O=C1CSc2cc(F)c(C(=O)NC3CCc4nn(-c5cccc6cccnc56)cc4C3)cc2N1` (stereo not shown) [Example 32, 7-Fluoro-3-oxo-3,4-dihydro-2H-benzo[1,4]thiazine-6-carboxylic acid (2-quinolin-8-yl-4,5,6,7-tetrahydro-2H-indazol-5-yl)-amide] are 16 µg/mL (≈ 33.8 µM), 0.25 µg/mL (≈ 0.528 µM), 4 µg/mL (≈ 8.45 µM) and 264 nM.
In the case of `O=C1CSc2ccc(C(=O)NC3CCc4nn(-c5cccc6ccccc56)cc4C3)cc2N1` (stereo not shown) [Example 34, 3-Oxo-3,4-dihydro-2H-benzo[1,4]thiazine-6-carboxylic acid (2-naphthalen-1-yl-4,5,6,7-tetrahydro-2H-indazol-5-yl)-amide], the values for the MIC in test [1], in test [2] and in test [3] were over 128 µg/mL, 0.5 µg/mL (≈ 1.1 µM) and 8 µg/mL (≈ 17.6 µM), respectively. Besides, the IC50 in test [4] was 4400 nM; in test [5] it was 275 nM.
On the same counts, the results for `COc1ccc2nccc(-n3cc4c(n3)CCC(NCc3ccc5c(c3)NCCS5)C4)c2n1` (stereo not shown) [Example 36, (3,4-Dihydro-2H-benzo[1,4]thiazin-6-ylmethyl)-[2-(6-methoxy-[1,5]naphthyridin-4-yl)-4,5,6,7-tetrahydro-2H-indazol-5-yl]-amine] are 8 µg/mL (≈ 17.4 µM), under 0.125 µg/mL, 0.25 µg/mL (≈ 0.545 µM), 1090 nM and 65.4 nM.
In the same order, the values of `COc1ccc2nccc(-n3cc4c(n3)CCC(NCc3ccc5c(c3)OCO5)C4)c2n1` (stereo not shown) [Example 37, Benzo[1,3]dioxol-5-ylmethyl-[2-(6-methoxy-[1,5]naphthyridin-4-yl)-4,5,6,7-tetrahydro-2H-indazol-5-yl]-amine] are 32 µg/mL (≈ 74.5 µM), 0.5 µg/mL (≈ 1.16 µM), 2 µg/mL (≈ 4.66 µM), 582 nM and 582 nM.
On the same counts, the results for `COc1ccc2nccc(-n3cc4c(n3)CCC(NCc3ccc5c(c3)OC(F)(F)O5)C4)c2n1` (stereo not shown) [Example 38, (2,2-Difluoro-benzo[1,3]dioxol-5-ylmethyl)-[2-(6-methoxy-[1,5]naphthyridin-4-yl)-4,5,6,7-tetrahydro-2H-indazol-5-yl]-amine] are over 128 µg/mL, 0.25 µg/mL (≈ 0.537 µM), 4 µg/mL (≈ 8.59 µM), 4300 nM and 537 nM.
For `COc1ccc2nccc(-n3cc4c(n3)CCC(NCc3cc5c(cc3F)SCC(=O)N5)C4)c2n1` (stereo not shown) [Example 40, 7-Fluoro-6-{[2-(6-methoxy-[1,5]naphthyridin-4-yl)-4,5,6,7-tetrahydro-2H-indazol-5-ylamino]-methyl}-4H-benzo[1,4]thiazin-3-one], the minimum inhibitory concentration (MIC) in test [1] came to 4 µg/mL (≈ 8.15 µM); in test [2], 0.25 µg/mL (≈ 0.51 µM); in test [3], 4 µg/mL (≈ 8.15 µM). The IC50 was 4080 nM in test [4] and 122 nM in test [5].
As for `COc1ccc2nccc(-n3cc4c(n3)CCC(NCc3ccc5c(c3)OCCO5)C4)c2n1` (stereo not shown) [Example 42, (2,3-Dihydro-benzo[1,4]dioxin-6-ylmethyl)-[2-(6-methoxy-[1,5]naphthyridin-4-yl)-4,5,6,7-tetrahydro-2H-indazol-5-yl]-amine], the results for the MIC in test [1], in test [2] and in test [3] were 32 µg/mL (≈ 72.2 µM), 0.03 µg/mL (≈ 0.0676 µM) and 0.5 µg/mL (≈ 1.13 µM), respectively. Moreover, the concentration for half-maximal inhibition (IC50) in test [4] was 2250 nM; in test [5] it was 564 nM.
In the same order, the values of `COc1ccc2nccc(-n3cc4c(n3)CCC(NCc3ccc5c(n3)NC(=O)CO5)C4)c2n1` (stereo not shown) [Example 44, 6-{[2-(6-Methoxy-[1,5]naphthyridin-4-yl)-4,5,6,7-tetrahydro-2H-indazol-5-ylamino]-methyl}-4H-pyrido[3,2-b][1,4]oxazin-3-one] are 2 µg/mL (≈ 4.37 µM), 0.5 µg/mL (≈ 1.09 µM), 2 µg/mL (≈ 4.37 µM), under 273 nM and 35 nM.
In the same order, the values of `COc1ccc2nccc(-n3cc4c(n3)CCC(NCc3cc5c(cc3F)SCC(=O)N5)C4)c2c1` (stereo not shown) [Example 53, 7-Fluoro-6-{[2-(6-methoxy-quinolin-4-yl)-4,5,6,7-tetrahydro-2H-indazol-5-ylamino]-methyl}-4H-benzo[1,4]thiazin-3-one] are 4 µg/mL (≈ 8.17 µM), 0.25 µg/mL (≈ 0.511 µM), 2 µg/mL (≈ 4.09 µM), 1020 nM and 32.7 nM.
In the same order, the values of `COc1ccc2nccc(-n3cc4c(n3)CCC(NCc3ccc5c(n3)NC(=O)CO5)C4)c2c1` (stereo not shown) [Example 54, 6-{[2-(6-Methoxy-quinolin-4-yl)-4,5,6,7-tetrahydro-2H-indazol-5-ylamino]-methyl}-4H-pyrido[3,2-b][1,4]oxazin-3-one] are 2 µg/mL (≈ 4.38 µM), 1 µg/mL (≈ 2.19 µM), 2 µg/mL (≈ 4.38 µM), 131 nM and 35 nM.
In the case of `O=C1CSc2ccc(C(=O)NC3CCc4nn(-c5ccnc6cc(Cl)ccc56)cc4C3)cc2N1` (stereo not shown) [Example 81, 3-Oxo-3,4-dihydro-2H-benzo[1,4]thiazine-6-carboxylic acid [2-(7-chloro-quinolin-4-yl)-4,5,6,7-tetrahydro-2H-indazol-5-yl]-amide], the MIC in test [1] was over 128 µg/mL; in test [2], 2 µg/mL (≈ 4.08 µM); in test [3], over 128 µg/mL. Besides, in test [5], the 50% inhibitory concentration (IC50) was over 1020 nM.
For the molecule `COc1ccc2nccc(-n3cc4c(n3)CCC(NC(=O)c3cc5c(cc3C(F)(F)F)SCC(=O)N5)C4)c2n1` (stereo not shown) [Example 112, 3-Oxo-7-trifluoromethyl-3,4-dihydro-2H-benzo[1,4]thiazine-6-carboxylic acid [2-(6-methoxy-[1,5]naphthyridin-4-yl)-4,5,6,7-tetrahydro-2H-indazol-5-yl]-amide], the figures for the minimum inhibitory concentration (MIC) in test [1], in test [2] and in test [3] were 4 µg/mL (≈ 7.21 µM), 0.125 µg/mL (≈ 0.225 µM) and 8 µg/mL (≈ 14.4 µM), respectively. In addition, in test [4], the IC50 is 451 nM.
On the same counts, the results for `COc1ccc2nccc(-n3cc4c(n3)CCC(NC(=O)c3ccc5c(c3)NC(=O)CO5)C4)c2c1` (stereo not shown) [Example 116, 3-Oxo-3,4-dihydro-2H-benzo[1,4]oxazine-6-carboxylic acid [2-(6-methoxy-quinolin-4-yl)-4,5,6,7-tetrahydro-2H-indazol-5-yl]-amide] are 2 µg/mL (≈ 4.26 µM), 0.125 µg/mL (≈ 0.266 µM), 4 µg/mL (≈ 8.52 µM) and 532 nM.
In the same order, the values of `COc1ccc2nccc(-n3cc4c(n3)CCC(NC(=O)c3ccc([N+](=O)[O-])cc3F)C4)c2c1` (stereo not shown) [Example 118, 2-Fluoro-N-[2-(6-methoxy-quinolin-4-yl)-4,5,6,7-tetrahydro-2H-indazol-5-yl]-4-nitro-benzamide] are over 128 µg/mL, 4 µg/mL (≈ 8.67 µM), over 128 µg/mL and over 34700 nM.
On the same counts, the results for `COc1ccc2nccc(-n3cc4c(n3)CCC(NC(=O)/C=C/c3ccc(F)cc3F)C4)c2n1` (stereo not shown) [Example 120, 3-(2,4-Difluoro-phenyl)-N-[2-(6-methoxy-[1,5]naphthyridin-4-yl)-4,5,6,7-tetrahydro-2H-indazol-5-yl]-acrylamide] are over 128 µg/mL, 0.125 µg/mL (≈ 0.271 µM), 4 µg/mL (≈ 8.67 µM) and 4330 nM.
On to `O=C1CSc2ccc(CNC3CCc4c(cnn4-c4cc(C(F)(F)F)nc5ccccc45)C3)cc2N1` (stereo not shown) [Example 139, 6-{[1-(2-Trifluoromethyl-quinolin-4-yl)-4,5,6,7-tetrahydro-1H-indazol-5-ylamino]-methyl}-4H-benzo[1,4]thiazin-3-one], for which the MIC in test [1] is over 128 µg/mL; in test [2], 8 µg/mL (≈ 15.7 µM); in test [3], 32 µg/mL (≈ 62.8 µM). Besides, the IC50 in test [4] is over 31400 nM.
